Assay results published in patent publication US10617721B2, “Methods for genetic modification of stem cells” (Ospedale San Raffaele S.R.L., priority 2013, dated 2020).

What was measured:
[1] = system: cord blood CD34^+ cells; assay: VCN and engraftment after xenotransplantation of dmPGE2-stimulated, LV-transduced cord blood CD34+ cells into NSG mice; type: in vivo
Experimental: Cord blood CD34^+ cells were thawed and placed in culture (10^6 cells/mL) in Stem span serum free medium (SFEM) supplemented with 100 ng/mL SCF, 100 ng/mL FLT3L, 50 ng/mL TPO, 50 ng/mL IL-6 for 18 h (pre-stimulation) and subsequently transduced with a lentiviral vector at 10^8 TU/mL for 24 h. Cells were injected into sublethally irradiated, 8 week old NSG mice (1.5-3×10^5 cells per mouse), and vector copy number (VCN) was analysed in the pooled blood or bone marrow of each group of mice at the indicated time-points using primers specific for human cells. 3 replicate experiments are shown. Left graph: Cells were transduced with a PGK.TRAIL LV, and 10 μM dmPGE2 (dmPGE2 group, n=5 mice) or DMSO (Ctrl group, n=5 mice) was added directly after thawing (t=−16 h with respect to vector addition). Middle graph: Cells were transduced with a PGK.TRAIL LV, and 10 μM dmPGE2 (dmPGE2 group n=5) or DMSO (Ctrl group; n=8) was added 120 min before vector addition (t=−2 h). […], and 10 μM dmPGE2 (dmPGE2 group n=5) or DMSO (Ctrl group; n=5) was added 120 min before vector addition (t=−2 h). In all three experiments, the benefit in transduction observed in vitro was stably maintained long-term, up to 18 weeks after xenotransplantation.

[2] = system: human HSPCs; assay: Timing of dmPGE2 stimulation and transducability of human HSPCs by lentiviral vectors; type: cell-based
Experimental: This experiment was carried out on 1 cord blood and 1 mobilised peripheral blood donor, the relative VCN is shown (normalised to its respective control).

[3] = system: CD34^+ cells from G-CSF mobilised peripheral blood (mPB); assay: VCN in long-term repopulating cells after xenotransplantation of mPB CD34+ cells transduced by protocols P0-P4; type: in vivo, NSG mice
Experimental: CD34^+ cells from G-CSF mobilised peripheral blood (mPB) were thawed and placed in culture (10^6 cells/mL) in CellGro medium supplemented with SCF (300 ng/mL), FLT3L (300 ng/mL), TPO (100 ng/mL) and IL-3 (60 ng/mL). Cells were transduced with third generation lentiviral vectors coding for gp91^phox (vectors suitable for the gene therapy of chronic granulomatous disease) at a dose of 10^8 TU/mL. The different protocols used for ex vivo transduction of mPB CD34+ cells are illustrated in (E) and differ in terms of the presence (P1, P2, P3) or absence (P0, P4) of dmPGE2, the timing of dmPGE2 addition (after thawing: P1, P2; 120 min before transduction: P3) and the duration of culture (24 h: P2, P4 versus 44 h: P0, P1, P3).
(F) 10×10^6 CD34^+ mPB cells from donor 1 were thawed, divided into 4 equal parts and transduced with the SP146/gp91.cogp91^phox. 126T LV from an industry-grade production (Molmed Spa) according to P0, P1, P2 or P3. The outgrowth of 5×10^5 cells put into culture at time zero was injected per mouse (actual numbers: P0 3.66×10^5 per mouse; P1: 4.66×10^5 per mouse; P2: 3.0×10^5 per mouse; P3: 4.86×10^5 per mouse). Mice were euthanised at 20 weeks post transplantation. BM was flushed and pooled from the mice belonging to the same group (P0, P1, P2: n=5 per group; P3: n=3 per group) and depleted for mouse cells. Enriched human cells were then subjected to vector copy number (VCN) analysis using primers specific for human cells (5 technical replicates).
A replicate experiment was performed using mPB CD34^+ cells from a second donor (G). 15×10^6 CD34^+ mPB cells were thawed, divided into 4 equal parts and transduced with the SP146/gp91.gp91^phoxTGT.126T LV (a vector suitable for CGD gene therapy) coming from a lab-grade production according to protocols P0, P1 (44 h−/+dmPGE2) or P4, P2 (24 h−/+dmPGE2). The outgrowth of 9×10^5 cells put into culture at time zero was injected per mouse (actual numbers: P0 10×10^5 per mouse; P1: 8.2×10^5 per mouse; P4: 4.5×10^5 per mouse; P2: 5.3×10^5 per mouse). VCN was analysed on BM cells from each single mouse 13 weeks after transplantation using a qPCR assay specific for human cells.

[4] = system: cord blood CD34^+ cells; assay: Lentiviral vector transduction of cord blood CD34+ cells with or without dmPGE2, VCN by qPCR (in vitro); type: cell-based, human
Experimental: CD34^+ cells from n=4 cord blood donors (Lonza) were thawed and put into culture in Stem span serum free expansion medium (SFEM) supplemented with 100 ng/mL SCF, 100 ng/mL FLT3L, 50 ng/mL TPO, 50 ng/mL IL6 for 18 h (pre-stimulation), in the presence or absence of 10 μM dmPGE2. After pre-stimulation, cells were incubated with 10^8 TU/mL of a lentiviral vector for 24 h. Cells were then cultured in vitro (n=5 replicates) for 14 days in IMDM+10% FCS before vector copy number (VCN) was measured by qPCR as described in Gentner, B. et al. (2009) Nat.

[5] = system: CD34^+ cells from adult bone marrow; assay: Lentiviral vector transduction of adult bone marrow CD34+, CD34+CD38- and CD34+CD38+ cells with or without dmPGE2; type: cell-based, human; conditions: CD34^+ or CD34^+CD38^− HSPC from adult bone marrow after dmPGE2 treatment (10 μM)
Experimental: The experiments were carried out as follows: CD34^+ cells from N=3 bone marrow donors (Lonza) were thawed and put into culture in Stem span serum free expansion medium (SFEM) under the following conditions: pre-stimulation in 300 ng/mL SCF, 300 ng/mL FLT3L, 100 ng/mL TPO, 60 ng/mL IL3 for 18 h. Cells were then divided into 3 groups: bulk CD34^+, CD34^+CD38^−, CD34^+CD38^+ (FACS-sorted on a MoFlow cytometer after marking with CD38-APC antibody from BD Bioscience). We then added dmPGE2 (10 μM) or DMSO to the cultures, and pre-stimulated the cells for another 16 h before they were transduced with a GFP-expressing lentiviral vector (LV.PGK.GFP) at 10^8 TU/mL. In vitro culture assays were performed, either as liquid culture for 14 days in IMDM+10% FCS (left) or colony forming cell (CFC) assay (right; plated 800 cells/mL methocult, analysed colony outgrowth after 14 d). Vector copy number was assessed by qPCR as described in Gentner B et al. Nat. Methods 2009; 6:63-66.

[6] = system: G-CSF-mobilised CD34+ peripheral blood stem cells; assay: Lentiviral vector transduction of G-CSF-mobilised CD34+ peripheral blood stem cells with or without dmPGE2 (in vitro); type: cell-based, human; conditions: pre-stimulated with dmPGE2, 18 h
Experimental: N=6 transductions of 3 mobilised peripheral blood donors. Cells were thawed, resuspended in serum-free, commercial culture medium (e.g. CellGro) at a density of 10^6 cells/mL in the presence of the following cytokines: 300 ng/mL SCF, 300 ng/mL FLT3L, 100 ng/mL TPO, 60 ng/mL IL-3, and prestimulated for 18 h, in the absence (control, Ctrl) or presence of dmPGE2. Transduction was performed with lentiviral vectors (3 different batches) at 10^8 TU/mL for 12-24 h. Vector copy number was assessed by qPCR after 14 days of in vitro culture in IMDM and 10% FCS. Relative VCN (normalised to the Control group) is shown.

CCCCC(C)(C)[C@H](O)/C=C/[C@H]1[C@H](O)CC(=O)[C@@H]1C/C=C\CCCC(=O)O [dmPGE2, 16,16-dimethyl prostaglandin E2]
time over which benefit in transduction was stably maintained after xenotransplantation ([1]; 10 μM dmPGE2 at t=−16 h or t=−2 h, three experiments): up to 18 weeks
engraftment levels ([1]; NSG mice, dmPGE2-treated cells): not negatively affected
time over which difference in VCN was maintained after transplantation into NSG mice ([1]; after transplantation of dmPGE2-treated cells): more than 4 months
increase in VCN ([2]; dmPGE2 added 2 h before LV exposure (t=−2 h), 1 cord blood and 1 mobilised peripheral blood donor): 100%
VCN increase ([2]; dmPGE2 added at the time of thawing (t=−16 h)): ~50%
sustained gain in transduction efficiency in long-term repopulating cells ([3]; P1 condition (dmPGE2 after thawing, 44 h culture), donor 2, BM 13 weeks after transplantation): did not result in a sustained gain in transduction efficiency
transduction-promoting effect in long-term repopulating cells ([3]; P2 (24 h culture with dmPGE2), donor 2, BM 13 weeks after transplantation): increased transduction well above levels achieved by a 44 h standard protocol
increase in VCN into long-term repopulating cells ([3]; P2 condition (dmPGE2 after thawing, 24 h culture), donor 1, BM 20 weeks post transplantation): ~50%
increase in VCN, P3 protocol ([3]; P3 (dmPGE2 120 min before transduction, 44 h culture), donor 1, BM 20 weeks): not statistically significant
increase in gene transfer (VCN) ([4]; 10 μM dmPGE2 during 18 h pre-stimulation, LV 10^8 TU/mL 24 h, VCN after 14 days culture): 50%
increased gene transfer efficiency ([4]; CD34^+ or CD34^+CD38^− HSPC from cord blood after dmPGE2 treatment): 1.5 fold
increased gene transfer efficiency [5]: 1.5 fold
transduction by lentiviral vectors [6]: more efficient transduction
